# Assay results: US20030229105A1, “Treatment of autoimmune disorders” (Cyclacel Limited, priority 2002, published 2003)
# How the values were obtained:
# HTLV-1 = test: p19 gag ELISA of TNF-α-treated HTLV-1-infected MT-2 cells; format: cell-based; settings: TNF-α 2 h, then drug, 7 days
# [1] = test system: HIV-1-infected ACH2 cells; test: Annexin V and PI double staining flow cytometry; format: cell-based; settings: ACH2, especially with TNF-α; 10 μM, 48 h
# From the text: (§1) Apoptosis and necrosis are two pathways that lead to cell death. Apoptosis is characterized by a series of morphological features, including cell shrinkage, plasma membrane blebbing, phosphatidylserine translocation to the outer leaflet of the plasma membrane, nuclear condensation, and DNA fragmentation (1). To distinguish apoptotic from necrotic cells, we performed a flow cytometry experiment using Annexin V and PI double staining. Annexin V is a sensitive probe for phosphatidylserine, and PI was used to detect membrane loss, since membrane loss leads to the accessibility of PI staining to DNA. […] At 48 h after drug treatment, most of the apoptotic cells were found at the late stage of apoptosis and not in the necrotic population (FIG. 6A). […] Absorbances of the samples were read every 60 min in a Spectramax 250 microplate reader at 405 nm.
# (§2) Cells were collected, stained with PI and FITC-Annexin V, and analyzed by FACS. […] The antigen-antibody complexes were detected using ^125I-labeled protein G. (C) Cells were washed in PBS and analyzed for caspase-3 activity using a colorimetric protease assay kit (Chemicon). […] Absorbances of samples were read every 60 min in a microplate reader at 405 nm.
# Apoptosis was determined by using Annexin V and PI double staining (Annexin V-FITC; PharMingen International). […] Cells were acquired and analyzed using CELLQuest software (Becton Dickinson).
# PARP = test: Immunoblot of PARP cleavage; format: cell-based; settings: induced ACH2 cells exposed to Roscovitine
# From the text: as §1, with “6A). We next investigated whether the apoptotic cascade through the caspase-3 pathway was activated under drug treatment.” for “6A).”
# as §2
# caspase-3 = test: Caspase-3 colorimetric protease assay (DEVD-pNA) on cell lysates; format: cell-based; settings: induced ACH2 cells, 37° C., 3 h
# From the text: Apoptosis and necrosis are two pathways that lead to cell death. Apoptosis is characterized by a series of morphological features, including cell shrinkage, plasma membrane blebbing, phosphatidylserine translocation to the outer leaflet of the plasma membrane, nuclear condensation, and DNA fragmentation (1). To distinguish apoptotic from necrotic cells, we performed a flow cytometry experiment using Annexin V and PI double staining. Annexin V is a sensitive probe for phosphatidylserine, and PI was used to detect membrane loss, since membrane loss leads to the accessibility of PI staining to DNA. […] Absorbances of the samples were read every 60 min in a Spectramax 250 microplate reader at 405 nm.
# as §2
# Cells were washed in PBS and analyzed for caspase-3 activity by using a CPP32/Caspase-3 Colorimetric Protease Assay Kit (Chemicon, Temecula, Calif.) according to the manufacturers' instructions. […] Protein concentrations of the lysates were determined by using the bicinchoninic acid assay reagent (Pierce, Rockford, Ill.). […]
# [2] = test system: U937 uninfected monocytic parental cell line; test: Cell cycle analysis (PI staining, FACS) of uninfected U937 cells; settings: U937 cells (FIG. 2C)
# cdk9-cyclin T complex = cdk9-cyclin T complex (Homo sapiens, UniProt P50750); test: cdk9-cyclin T immunoprecipitate CTD kinase assay from treated cells; settings: 10 μM (FIG. 5B)
# Sequence of cdk9-cyclin T complex (P50750 whole entry): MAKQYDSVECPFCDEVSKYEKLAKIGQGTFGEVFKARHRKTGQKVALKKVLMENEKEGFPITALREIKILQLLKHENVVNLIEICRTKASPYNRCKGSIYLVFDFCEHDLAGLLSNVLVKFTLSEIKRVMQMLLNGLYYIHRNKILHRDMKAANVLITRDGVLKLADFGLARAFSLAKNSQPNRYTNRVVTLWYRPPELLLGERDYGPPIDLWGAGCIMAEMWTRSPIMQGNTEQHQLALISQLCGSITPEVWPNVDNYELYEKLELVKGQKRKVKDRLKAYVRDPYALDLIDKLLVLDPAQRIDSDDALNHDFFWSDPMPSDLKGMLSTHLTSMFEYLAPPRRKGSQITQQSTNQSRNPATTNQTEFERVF
# Sequence of cdk9-cyclin T complex (O60563 whole entry partner): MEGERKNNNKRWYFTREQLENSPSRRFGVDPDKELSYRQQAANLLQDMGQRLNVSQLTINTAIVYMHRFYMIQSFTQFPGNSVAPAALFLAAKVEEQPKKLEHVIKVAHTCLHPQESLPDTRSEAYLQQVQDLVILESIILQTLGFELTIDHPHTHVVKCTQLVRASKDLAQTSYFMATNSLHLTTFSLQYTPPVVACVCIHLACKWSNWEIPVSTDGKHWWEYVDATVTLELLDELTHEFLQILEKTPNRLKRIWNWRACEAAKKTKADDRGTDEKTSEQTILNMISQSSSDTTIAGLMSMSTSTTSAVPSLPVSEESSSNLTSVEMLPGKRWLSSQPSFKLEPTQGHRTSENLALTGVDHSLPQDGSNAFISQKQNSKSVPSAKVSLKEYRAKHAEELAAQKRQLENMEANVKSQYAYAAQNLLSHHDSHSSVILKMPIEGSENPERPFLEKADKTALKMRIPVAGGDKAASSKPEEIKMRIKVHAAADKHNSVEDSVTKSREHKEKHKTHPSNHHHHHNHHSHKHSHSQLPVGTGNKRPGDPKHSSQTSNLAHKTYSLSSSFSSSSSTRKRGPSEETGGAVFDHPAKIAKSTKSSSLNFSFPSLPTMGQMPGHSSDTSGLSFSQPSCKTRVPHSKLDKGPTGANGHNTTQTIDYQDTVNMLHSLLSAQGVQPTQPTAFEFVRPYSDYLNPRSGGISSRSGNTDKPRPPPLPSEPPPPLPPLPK
# cdk6 = cdk6 (Homo sapiens, UniProt Q00534); settings: cited from earlier work
# Sequence of cdk6 (Q00534 whole entry): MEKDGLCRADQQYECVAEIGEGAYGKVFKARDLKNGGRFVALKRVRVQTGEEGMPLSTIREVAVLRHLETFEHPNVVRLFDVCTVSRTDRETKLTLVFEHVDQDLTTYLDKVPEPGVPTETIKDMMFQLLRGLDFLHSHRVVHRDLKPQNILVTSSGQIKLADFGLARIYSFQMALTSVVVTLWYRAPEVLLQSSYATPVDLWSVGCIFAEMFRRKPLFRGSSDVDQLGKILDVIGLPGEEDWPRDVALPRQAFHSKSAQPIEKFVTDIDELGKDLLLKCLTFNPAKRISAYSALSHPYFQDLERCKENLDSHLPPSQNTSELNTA
# Sequence of cdk6 (P30279 whole entry partner): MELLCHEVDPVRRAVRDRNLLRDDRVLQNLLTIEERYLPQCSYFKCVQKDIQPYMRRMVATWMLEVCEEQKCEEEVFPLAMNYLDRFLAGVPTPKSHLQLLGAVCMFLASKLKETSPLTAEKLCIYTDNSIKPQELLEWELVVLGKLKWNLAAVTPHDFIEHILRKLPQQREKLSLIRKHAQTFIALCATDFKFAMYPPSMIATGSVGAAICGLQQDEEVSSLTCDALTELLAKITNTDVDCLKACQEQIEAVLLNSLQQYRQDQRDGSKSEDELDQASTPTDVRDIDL
# [3] = test system: HIV-1 genomic, structural, and regulatory RNAs; test: Northern blot with whole genomic HIV-1 probe in ACH2 cells; format: cell-based; settings: ACH2, TNF-α, then increasing concentrations (1, 10, 50 μM)
# Procedure: At days 2, 4, and 6, the supernatants were collected, and the released HIV-1 particles were measured by using a p24 antigen ELISA assay. (B) Twenty micrograms of total RNA was separated on an RNA-formaldehyde-agarose gel, transferred, and probed with full-length labeled HIV-1 genome RNA. The hybridized genomic RNA, singly spliced (structural), and doubly spliced (regulatory) RNAs were exposed and counted by using Molecular Dynamic PhosphorImager software.
Molecule,inhibition of HTLV-1 replication (p19 gag) (HTLV-1),number of apoptotic (Annexin V-stained) cells [1],PARP cleavage (PARP),caspase-3 activity increase (caspase-3) [fold],apoptosis in uninfected parental cells [2],cdk9 levels and activity on phosphorylation of RNA Pol II CTD (cdk9-cyclin T complex),reported inhibition of cdk6 (cdk6),"HIV-1 genomic, structural, and regulatory RNA levels [3]"
CC(C)[C@H](CO)Nc1nc(Nc2cccc(Cl)c2)c2ncn(C(C)C)c2n1 [Purvalanol A],inhibited HTLV-1 replication,–,–,–,–,–,–,–
Roscovitine,–,remarkable increase in the number of apoptotic cells,almost completely cleaved,~5,no apparent apoptosis,decrease of cdk9 levels and its activity,not cdk4 or -6,dramatically decreased
